In this assay the target is Complement factor D (Homo sapiens, UniProt P00746). In words: Inhibition Assay: Human factor D (purified from human serum, Complement Technology, Inc.) at 80 nM final concentration is incubated with test compound at various concentrations for 5 minutes at room temperature in 50 mM Tris, 1M NaCl, pH 7.5. A synthetic substrate Z-L-Lys-SBzl and DTNB (Ellman's reagent) are added to final concentrations of 10 μM each. The increase in color is recorded at OD405 nm in a microplate in kinetic mode over 30 minutes with 30 second time points in a […]. IC50 values are calculated by non-linear regression from the percentage of inhibition of complement factor D activity as a function of test compound concentration.
Complement factor D, sequence (P00746 whole entry): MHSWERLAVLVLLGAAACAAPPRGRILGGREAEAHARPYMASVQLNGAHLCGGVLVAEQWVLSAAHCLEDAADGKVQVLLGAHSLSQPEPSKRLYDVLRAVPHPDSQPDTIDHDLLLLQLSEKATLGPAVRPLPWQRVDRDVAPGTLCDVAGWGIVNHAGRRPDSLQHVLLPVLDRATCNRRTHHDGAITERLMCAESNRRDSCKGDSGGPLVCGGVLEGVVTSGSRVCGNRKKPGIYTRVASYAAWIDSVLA

Each structure is given as a SMILES string. Bounds are passed on as bounds.

For orientation: IC50 means the midpoint of a concentration-inhibition curve.

As to `NC(=O)c1cn(CC(=O)N2C[C@H](F)C[C@H]2C(=O)Nc2cccc(-c3ccccc3Cl)c2F)c2ccsc12`, the half-maximal inhibitory concentration (IC50) is less than 1000 nM.

Take `NC(=O)c1nn(CC(=O)N2C[C@H](F)C[C@H]2C(=O)Nc2cccc(Br)n2)c2c1C=CC1N=C(c3cccc(Cl)c3)N=C21` (some centres not stated): the IC50 was less than 1000 nM.
